Measurements from ChEMBL document CHEMBL5143689, “In silico, synthesis and anticancer evaluation of benzamide tryptamine derivatives as novel eEF2K inhibitors” (Bioorg Med Chem Lett, 2022).
Calls of active or inactive are those of the source. The calls are words filed in the database; no cut-off is given here.

How the values were obtained:
[1] = target: T1, Eukaryotic elongation factor 2 kinase (Homo sapiens, UniProt O00418); experiment: Inhibition of eEF2K (unknown origin)
T1 sequence (O00418 whole entry): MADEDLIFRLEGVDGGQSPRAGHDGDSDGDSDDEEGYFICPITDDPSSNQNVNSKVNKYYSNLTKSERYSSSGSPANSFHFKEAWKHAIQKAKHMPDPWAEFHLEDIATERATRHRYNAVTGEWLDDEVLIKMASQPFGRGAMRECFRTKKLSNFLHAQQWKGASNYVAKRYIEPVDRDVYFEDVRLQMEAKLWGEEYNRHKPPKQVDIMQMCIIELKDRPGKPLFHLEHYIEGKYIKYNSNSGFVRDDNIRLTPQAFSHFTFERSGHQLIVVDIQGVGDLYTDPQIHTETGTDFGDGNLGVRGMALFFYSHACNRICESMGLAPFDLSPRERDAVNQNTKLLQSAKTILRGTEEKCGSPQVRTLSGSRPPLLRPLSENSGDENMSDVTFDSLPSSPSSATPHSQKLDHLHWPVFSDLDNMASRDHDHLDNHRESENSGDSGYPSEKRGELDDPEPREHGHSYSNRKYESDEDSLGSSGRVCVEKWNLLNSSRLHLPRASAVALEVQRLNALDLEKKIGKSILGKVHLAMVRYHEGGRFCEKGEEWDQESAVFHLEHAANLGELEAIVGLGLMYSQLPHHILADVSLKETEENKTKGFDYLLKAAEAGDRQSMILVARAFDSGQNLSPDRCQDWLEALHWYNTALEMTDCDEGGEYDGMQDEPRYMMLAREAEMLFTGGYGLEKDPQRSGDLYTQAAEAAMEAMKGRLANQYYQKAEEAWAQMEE

[2] = system: U-937; experiment: Antiproliferative activity against human U-937 cells assessed as inhibition of cell viability measured after 48 hrs by MTT assay; type: functional, cell-based; conditions: U-937, 48 h
[3] = system: CCRF-CEM; experiment: Antiproliferative activity against human CCRF-CEM cells assessed as inhibition of cell viability measured after 48 hrs by MTT assay; type: functional, cell-based
[4] = system: K562; experiment: Antiproliferative activity against human K562 cells assessed as inhibition of cell viability measured after 48 hrs by MTT assay; type: functional, cell-based; conditions: K562, 48 h
[5] = target: T2, Eukaryotic elongation factor 2 kinase (Homo sapiens) (UniProt O00418); experiment: Inhibition of eEF2K in human CCRF-CEM cells assessed as decrease in MAPK protein expression level up to 16 uM measured after 48 hrs by Western blot analysis; type: cell-based
T2 sequence (whole entry): T1 sequence (O00418 whole entry)

[6] = system: CCRF-CEM; experiment: Induction of apoptosis in human CCRF-CEM cells assessed as increase in cleaved caspase-8 level at 5 uM by Western blot analysis; type: functional, cell-based; conditions: time <= 48.0 hrs, TDE = time-dependent effect
[7] = system: CCRF-CEM; experiment: Induction of cell cycle arrest in human CCRF-CEM cells assessed as accumulation at G0/G1 phase at 2 uM incubated for 48 hrs by PI staining based flow cytometry analysis (reference value: 71.3%); type: functional
[8] = system: CCRF-CEM; experiment: Induction of apoptosis in human CCRF-CEM cells assessed as increase in cleaved PARP level at 5 uM by Western blot analysis; type: functional, cell-based; conditions: time <= 48.0 hrs, TDE = time-dependent effect
[9] = system: CCRF-CEM; experiment: Induction of cell cycle arrest in human CCRF-CEM cells assessed as accumulation at G0/G1 phase at 8 uM incubated for 48 hrs by PI/ RNaseA staining based flow cytometry analysis (reference value: 71.3%); type: functional
[10] = target: T2, Eukaryotic elongation factor 2 kinase (Homo sapiens); experiment: Inhibition of eEF2K in human CCRF-CEM cells assessed as decrease in phosphorylation of MAPK up to 16 uM measured after 48 hrs by Western blot analysis; type: cell-based
[11] = target: T2, Eukaryotic elongation factor 2 kinase (Homo sapiens); experiment: Inhibition of eEF2K in human CCRF-CEM cells assessed as decrease in phosphorylation of Akt at 5 uM measured up to 48 hrs by Western blot analysis; type: cell-based
[12] = target: T2, Eukaryotic elongation factor 2 kinase (Homo sapiens); experiment: Inhibition of eEF2K in human CCRF-CEM cells assessed as decrease in phosphorylation of Akt up to 16 uM measured after 48 hrs by Western blot analysis; type: cell-based
[13] = target: T2, Eukaryotic elongation factor 2 kinase (Homo sapiens); experiment: Inhibition of eEF2K in human CCRF-CEM cells assessed as decrease in phosphorylation of eEF2 at threonine 58 residue up to 16 uM measured after 48 hrs by Western blot analysis; type: cell-based
[14] = target: T2, Eukaryotic elongation factor 2 kinase (Homo sapiens); experiment: Inhibition of eEF2K in human CCRF-CEM cells assessed as decrease in phosphorylation of mTOR up to 16 uM measured after 48 hrs by Western blot analysis; type: cell-based
[15] = system: CCRF-CEM; experiment: Induction of apoptosis in human CCRF-CEM cells assessed as increase in cleaved caspase-3 level at 5 uM by Western blot analysis; type: functional, cell-based; conditions: time <= 48.0 hrs, TDE = time-dependent effect
[16] = system: CCRF-CEM; experiment: Induction of apoptosis in human CCRF-CEM cells assessed as early apoptotic cells up to 8 uM measured after 48 hrs by AnnexinV-FITC/PI staining based flow cytometry method; type: functional
[17] = system: CCRF-CEM; experiment: Induction of apoptosis in human CCRF-CEM cells assessed as increase in cleaved caspase-9 level at 5 uM by Western blot analysis; type: functional, cell-based; conditions: time <= 48.0 hrs, TDE = time-dependent effect
[18] = system: CCRF-CEM; experiment: Induction of cell cycle arrest in human CCRF-CEM cells assessed as accumulation at G0/G1 phase at 4 uM incubated for 48 hrs by PI/ RNaseA staining based flow cytometry analysis (reference value: 71.3%); type: functional
[19] = target: T2, Eukaryotic elongation factor 2 kinase (Homo sapiens); experiment: Inhibition of eEF2K in human CCRF-CEM cells assessed as decrease in phosphorylation of eEF2 at 5 uM measured up to 48 hrs by Western blot analysis; type: cell-based
[20] = system: CCRF-CEM; experiment: Induction of apoptosis in human CCRF-CEM cells assessed as late apoptotic cells up to 8 uM measured after 48 hrs by AnnexinV-FITC/PI staining based flow cytometry method; type: functional
[21] = target: T2, Eukaryotic elongation factor 2 kinase (Homo sapiens); experiment: Inhibition of eEF2K in human CCRF-CEM cells assessed as decrease in phosphorylation of mTOR at 5 uM measured up to 48 hrs by Western blot analysis; type: cell-based
[22] = target: T2, Eukaryotic elongation factor 2 kinase (Homo sapiens); experiment: Inhibition of eEF2K in human CCRF-CEM cells assessed as decrease in phosphorylation of eEF2 at threonine 56 residue up to 16 uM measured after 48 hrs by Western blot analysis; type: cell-based
[23] = target: T2, Eukaryotic elongation factor 2 kinase (Homo sapiens); experiment: Inhibition of eEF2K in human CCRF-CEM cells assessed as decrease in phosphorylation of MAPK at 5 uM measured up to 48 hrs by Western blot analysis; type: cell-based

| IC50 [2] [µM] | IC50 [3] [µM] | IC50 [4] [µM] | SMILES | further results |
| --- | --- | --- | --- | --- |
| 15.2 | 9.79 | 7.83 | COc1ccc2[nH]cc(CCNCCC(=O)Nc3ccccc3)c2c1 | – |
| > 50 | 4.45 | 33.8 | CC(CNCCc1c[nH]c2ccccc12)C(=O)Nc1ccccc1N (racemic) | – |
| 2.12 | 1.63 | 3.54 | O=C(CCNCCc1c[nH]c2ccc(Cl)cc12)Nc1ccccc1 | inhibition [5]: Active; Activity [6]: Tde; Activity [7]: 80.8%; Activity [8]: Tde; Activity [9]: 92.3%; inhibition [10]: Active; inhibition [11]: Active; inhibition [12]: Active; inhibition [13]: Active; inhibition [14]: Active; Activity [15]: Tde; Activity [16]: 0.021%; Activity [17]: Tde; Activity [18]: 89.7%; inhibition [19]: Active; Activity [20]: 23.1%; inhibition [21]: Active; inhibition [22]: Active; inhibition [23]: Active |
| > 50 | 6.2 | > 50 | Nc1cc(F)ccc1NC(=O)CCNCCc1c[nH]c2ccccc12 | – |
| > 50 | 9.16 | 37.5 | COc1ccc2[nH]cc(CCNCC(C)C(=O)Nc3ccccc3)c2c1 (racemic) | – |
| 11.4 | 3.9 | 7 | CC(CNCCc1c[nH]c2ccccc12)C(=O)Nc1ccccc1 (racemic) | – |
| > 50 | > 50 | > 50 | Cc1ccc(NC(=O)CCNCCc2c[nH]c3ccccc23)c(N)c1 | – |

Second part, the compound before the results:

| SMILES | IC50 [2] [µM] | IC50 [3] [µM] | IC50 [4] [µM] | further results |
| --- | --- | --- | --- | --- |
| O=S(=O)(c1ccc(Cl)cc1)C1(S(=O)(=O)c2ccc(Cl)cc2)CC1 | – | – | – | IC50 [1]: 0.069 µM |
| O=C(Nc1ccc(F)cc1F)N1CCCN(Cc2ccccc2)CC1 | – | – | – | IC50 [1]: 0.032 µM |
| O=C1CC(c2ccccc2)c2cccc(N3CCCC3)c21 (stereo unspecified) | – | – | – | IC50 [1]: 0.23 µM |
| COc1ccc2[nH]cc(CCNCCC(=O)Nc3ccccc3N)c2c1 | 11.2 | 4.71 | 16.5 | – |
| COc1ccc2[nH]cc(CCNCCC(=O)Nc3ccc(C)cc3[N+](=O)[O-])c2c1 | > 50 | 14.5 | 48.1 | – |
| COc1ccc2[nH]cc(CCNCCC(=O)Nc3ccc(C)cc3N)c2c1 | > 50 | > 50 | > 50 | – |
| Cc1ccc(C2=NC(C)(O)CC(C(C)C)[Se]2)cc1 (stereo unspecified) | – | – | – | IC50 [1]: 1.5 µM |
| COc1ccc2[nH]cc(CCNCC(C)C(=O)Nc3ccc(C)cc3N)c2c1 (racemic) | > 50 | > 50 | 39.2 | – |
